The structures appear in SMILES notation.

For orientation: melting point means the temperature, or range, at which the solid turns liquid.

`CCCCNS(=O)(=O)C[C@@H](O)C(O)[C@@H](CC1CCCCC1)NC(=O)[C@@H](N)CC(C)C` (relative stereo) yielded a melting point of 99 to 109 °C.
With `CSc1ncc(N(C)C(=O)C(C)(C)c2cc(C(F)(F)F)cc(C(F)(F)F)c2)c(-c2ccccc2C)n1` the figure was 124 to 125 °C.
As for `N#Cc1ccc(N=CNc2ccc(C#N)cc2)cc1`, the melting point lay within 214 to 217 °C.
With `CCC[C@H]1C(=O)N[C@H]2CCN[C@@H]21` (relative stereo) the figure was 97 to 100 °C.
Turning to `COCNC(=O)ON=C1SCOC1C` (centres undefined), the melting point lay within 78 to 79 °C.
For the compound `COC1(c2cc(F)cc(OCc3ccc4ccccc4c3)c2)CCOCC1`, the melting point was in the range of 109 to 111 °C.
For `CCOC(=O)N=P(c1ccccc1)(c1ccccc1)c1ccccc1CN(C)C`, the melting point is 103 to 105 °C.
With `CC(C)(C)C(=O)OCc1nc2cc3c(cc2c(=O)[nH]1)CCC3`, the melting point fell in the range of 185 to 190 °C.
As for `CC(C)(C)c1cc(-c2n[nH]c(=S)s2)cc(C(C)(C)C)c1O`, the melting point fell in the range of 190 to 191 °C.
For the compound `COC(=O)c1ccc(-c2nc3[nH]c4ccccc4c3c(=O)[nH]2)cc1`, the melting point was over 250 °C.
Take `Fc1ccc2[nH]cc([C@H]3CC[C@H](NCc4ccccc4)CC3)c2c1`: the melting point lay within 131 to 133 °C.
For the compound `CN(C)CCOc1ccc(C=NCCN=Cc2ccc(OCCN(C)C)cc2O)c(O)c1`, the melting point lay within 92 to 94 °C.
In turn, `COc1c(Br)ccc2oc(CNc3ccc(-c4ccc(S(=O)(=O)NC(C(=O)O)C(C)C)cc4)cc3)c(C)c12` (centres undefined) displayed a melting point of 194 to 198 °C.
`CCCCNC(=O)NCc1ccc(Nc2n[nH]c3ncnc(Nc4cccc(Cl)c4)c23)cc1`: the melting point is 217 to 218 °C.
`O=c1[nH]ccc2c1ccc1cc[nH]c12` displayed a melting point of 244 to 245 °C.
On to `O=C(N[C@H]1C[C@H](C(=O)O)Nc2cc(Cl)cc(Cl)c21)C(c1ccccc1)c1ccccc1` (relative stereo), for which the melting point was 238 °C.
Turning to `Cc1cccc(-c2n[nH]cc2-c2ccc(F)c(-c3ccc(N4CCOCC4)cn3)c2)n1`, the melting point was in the range of 88 to 90 °C.
With `CC(C#N)(c1ccccc1)c1ccc([N+](=O)[O-])cc1` (centres undefined) the figure was 76 to 78 °C.
The compound `CC(C)(C)c1nc2cc(N3CCSCC3)c([N+](=O)[O-])cc2s1` displayed a melting point of 117 to 120 °C.
Compound `Cc1ccc(C(C)N(O)C(N)=S)s1` (centres undefined) returned a melting point of 155 °C.
The compound `N#Cc1cccc(C2=Nc3ccc(C#CC4=CCCCC4)cc3NC(=O)C2)c1` came in with a melting point of 228 °C.
For the compound `CCC(=O)Nc1cccc2c1C(=O)c1cccc(NC(=O)CC)c1C2=O`, the melting point is 321 °C.
Take `Cc1ccnc(CO)c1Br`: the melting point is 75 to 77 °C.
In turn, `CCCOc1ccc(S(=O)(=O)N2CCN(CCO)CC2)cc1-c1nc2c(CCC)nn(C)c2c(=O)[nH]1` returned a melting point of 158 to 159 °C.
`CN(C)C1(c2ccccc2)CCC2(CC1)NCCc1c2[nH]c2ccc(-c3ccncc3)cc12` (centres undefined): the melting point was 190 to 197 °C.
Then `COc1ccc(-c2c3c(cc4ccc(OC)c(OC)c24)C(=O)NC3)cc1`, with 258 to 260 °C; and `Cc1ccc(C(=O)NN2CCOCC2)c(Nc2ccc3[nH]ncc3c2)n1`, with 257 to 260 °C; and `COc1ccc2c(c1)C(=O)C(=Cc1ccccc1)O2`, with 134 °C.
The compound `COc1ccccc1NC(=O)Nc1nc(Nc2ccc(CC(=O)O)cc2)nc(Oc2ccc3ccccc3c2)n1` gave a melting point of 232 to 240 °C.
`CC(C)(CC(O)(C(=O)Nc1ccc([N+](=O)[O-])c(C(F)(F)F)c1)C(F)(F)F)c1ccccc1` (centres undefined) displayed a melting point of 119 to 120 °C.
With `Cc1ccccc1C(=O)Nc1ccc(C(=O)N2Cc3ccccc3Sc3ccccc32)cc1`, the melting point was in the range of 145 to 148 °C.
Then `Cc1c(/C=C/c2cccc([N+](=O)[O-])c2C)cccc1[N+](=O)[O-]`, with 246 °C; and `CN(C)c1ccc(/C=C/c2cccc(F)c2)cc1`, with 147 to 148 °C; and `COc1ccc(Oc2ccccc2)c(N)c1`, with 112 to 114 °C.
